From patent EP0533241A2, “Substituted alkyl derivatives of piperazinylcamphorsulfonyl oxytocin antagonists” (MERCK & CO. INC., priority 1991, dated 1993)

Target: T1, uterine OT receptors (Rattus norvegicus, UniProt P70536)
T1 sequence (P70536 1-388): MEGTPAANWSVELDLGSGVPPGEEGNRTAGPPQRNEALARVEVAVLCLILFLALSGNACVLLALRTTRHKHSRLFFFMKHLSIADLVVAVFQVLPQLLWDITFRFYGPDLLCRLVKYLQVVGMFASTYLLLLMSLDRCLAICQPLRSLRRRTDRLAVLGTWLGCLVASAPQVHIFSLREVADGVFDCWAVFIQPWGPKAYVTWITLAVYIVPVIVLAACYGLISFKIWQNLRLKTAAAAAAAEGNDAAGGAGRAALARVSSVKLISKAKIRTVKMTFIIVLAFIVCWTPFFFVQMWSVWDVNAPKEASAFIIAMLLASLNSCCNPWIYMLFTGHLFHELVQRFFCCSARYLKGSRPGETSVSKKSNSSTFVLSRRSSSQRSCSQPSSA
Assay: [3H]Oxytocin radioligand binding competition assay, crude membrane preparation of uteri from DES-treated rats
Conditions: for IC50: 1 nM [3H]OT, 60 minutes, 22 °C, rat uterine membranes
Protocol: The high affinity binding of [^3H] Oxytocin (OT)([tyrosyl, 3,5-[^3H]OT; 30-60 Ci/mmol; New England Nuclear. Boston, MA) to uterine OT receptors was based on an assay*using a crude membrane preparation of uteri taken from diethylstilbestrol dipropionate (DES)-treated (0.3 mg/kg, ip; 18-24) rats. Competition studies were conducted at equilibrium (60 minutes; 22 ° C) using 1 NM[^3H]OT in the following assay buffer: 50 mM Tris-HCI, 5 mM MgCl2, and 0.1% BSA, pH 7.4. Nonspecific binding (10% of the total binding) was determined using 1µM unlabeled OT and the binding reaction was terminated by filtration through glass fiber filters using a cell harvester (model 7019, Skatron, Inc., Sterling, VA).

| SMILES | IC50 [nM] | other results |
| --- | --- | --- |
| Cc1ccccc1N1CCN(S(=O)(=O)CC23CCC(CC2C(=O)O)C3(C)C)CC1 (centres unmarked) [Example 24] | 260 | – |
| CC(=O)NC(CC=C1CC2CCC1(CS(=O)(=O)N1CCN(c3ccccc3C)CC1)C2(C)C)C(=O)O (centres unmarked) [Example 29, 1-((7,7-DIMETHYL-2-(3-ACETAMIDO-3-CARBOXY) PROPYLIDINE-BICYCLO(2.2.1)HEPTAN-1-YL) METHANESULFONYL)-4-(2-METHYLPHENYL)PIPERAZINE] | – | inhibition at 1 µM (read-out: inhibition at 1,000 nM): 78% |
| Cc1ccccc1N1CCN(S(=O)(=O)CC23CCC(CC2NC(=O)C(CCS(C)(=O)=O)NC(=O)Cc2c[nH]cn2)C3(C)C)CC1 (centres unmarked) [Example 37] | 1.2 | – |
| Cc1ccccc1N1CCN(S(=O)(=O)CC23CCC(CC2N(C)C(=O)C(N)CCS(C)(=O)=O)C3(C)C)CC1 (centres unmarked) [Example 41] | 6.3 | – |
| CCOC(=O)CN1CCCC(C(=O)NC(C)CC2(O)CC3CCC2(CS(=O)(=O)N2CCN(c4ccccc4C)CC2)C3(C)C)C1 (centres unmarked) [Example 57] | – | inhibition at 100 nM (at 100 nM): 66% inhibition at 100 nM |

Now from value to compound, other results behind:

| IC50 [nM] | SMILES | other results |
| --- | --- | --- |
| 120 | COC(=O)C1CC2CCC1(CS(=O)(=O)N1CCN(c3ccccc3C)CC1)C2(C)C (stereo not drawn) [Example 23, 1-((7,7-DIMETHYL-2-ENDO-METHOXYCARBONYL-BICYCLO (2.2.1)HEPTAN-1-YL)METHANESULFONYL)-4-(2-METHYLPHENYL)PIPERAZINE] | – |
| 5.4 | Cc1ccccc1N1CCN(S(=O)(=O)CC23CCC(CC2NC(=O)C(CCS(C)(=O)=O)N(C)C)C3(C)C)CC1 (centres unmarked) [Example 38] | – |
| 9.2 | Cc1ccccc1N1CCN(S(=O)(=O)CC23CCC(CC2N(C)C(=O)C(CCS(C)(=O)=O)N(C)C)C3(C)C)CC1 (centres unmarked) [Example 42] | – |
